Test results taken from patent US20250066388A1, “1,3,4,7-TETRAHYDRO-2H-PYRROLO[3',2':5,6]PYRIDO[2,3-B][1,4]OXAZEPINE BCL-2 INHIBITORS” (AbbVie Inc., priority 2022, published 2025).

Experiments:
Bcl-xL protein = Bcl-xL protein (Homo sapiens (Human), UniProt Q07817); experiment: TR-FRET binding assay, Bcl-xL; settings: F-Bak peptide probe
Molt-4 cells = experiment: Cell viability counter screen (CellTiter-Glo) in Molt-4 cells; type: cell-based; settings: 24 hours, 10% Human Serum
Method: (§1) The acute lymphoblastic leukemia (ALL) human cell line RS4;11 (ATCC, Manassas VA) was used as the primary human cell line to assess the cellular activity of compound of the present Examples in vitro and their efficacy in vivo. […] The acute lymphoblastic leukemia cell line Molt-4, which is derived from immature T-lymphoid cells (T-ALL), was used as a counter screen assay.
(§2) 3000 Cells (0.1×10^6/mL) were seeded in each well of 384-well plate and were treated for 24 hours in a humidified chamber with 5% CO2. Cell viability was determined by CellTiter-Glo as described by the manufacturer's instructions (Promega Corporation, Madison, WI, USA).

RS4;11 cells = experiment: Cell viability assay (CellTiter-Glo) in RS4;11 cells; type: cell-based; settings: 10% Human Serum
Method: as §1, §2

Bcl-2 protein = Bcl-2 protein (Homo sapiens (Human), UniProt P10415); experiment: TR-FRET binding assay, Bcl-2; settings: F-Bak peptide probe, GST-Bcl-2
Bcl-2 protein, sequence (P10415 other isoform, or with tags, fused parts or gaps): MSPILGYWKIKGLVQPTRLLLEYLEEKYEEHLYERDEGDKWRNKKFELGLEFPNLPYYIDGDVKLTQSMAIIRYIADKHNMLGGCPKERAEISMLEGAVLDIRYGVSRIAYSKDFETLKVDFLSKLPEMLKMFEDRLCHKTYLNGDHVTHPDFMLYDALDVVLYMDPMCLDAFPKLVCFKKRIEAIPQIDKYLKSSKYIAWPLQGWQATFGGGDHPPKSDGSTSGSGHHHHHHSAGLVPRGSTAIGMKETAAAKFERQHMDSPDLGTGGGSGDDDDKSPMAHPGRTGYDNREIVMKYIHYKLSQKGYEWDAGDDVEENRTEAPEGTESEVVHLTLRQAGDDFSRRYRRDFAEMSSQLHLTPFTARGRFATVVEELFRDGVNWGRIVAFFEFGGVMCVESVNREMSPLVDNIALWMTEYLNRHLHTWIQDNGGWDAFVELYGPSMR

Bcl-xL protein, sequence (Q07817 other isoform, or with tags, fused parts or gaps): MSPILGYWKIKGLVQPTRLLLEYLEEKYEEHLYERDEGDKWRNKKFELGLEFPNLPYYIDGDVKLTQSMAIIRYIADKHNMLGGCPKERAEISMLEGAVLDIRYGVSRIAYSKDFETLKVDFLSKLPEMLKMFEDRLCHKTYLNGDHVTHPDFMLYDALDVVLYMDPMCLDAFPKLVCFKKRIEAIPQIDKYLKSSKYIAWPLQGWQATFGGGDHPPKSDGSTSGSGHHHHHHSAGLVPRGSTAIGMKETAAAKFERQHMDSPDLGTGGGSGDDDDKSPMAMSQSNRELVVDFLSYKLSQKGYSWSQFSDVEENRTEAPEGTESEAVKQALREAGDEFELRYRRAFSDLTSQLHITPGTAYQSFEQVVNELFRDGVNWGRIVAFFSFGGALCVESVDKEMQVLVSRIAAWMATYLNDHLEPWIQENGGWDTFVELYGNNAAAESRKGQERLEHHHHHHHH

CC1(C)CC(c2ccc(Cl)cc2)=C2CN3CCN(c4ccc(C(=O)NS(=O)(=O)c5ccc(NCC6CCOCC6)c([N+](=O)[O-])c5)c(N5CCCOc6nc7[nH]ccc7cc65)c4)C[C@H]3COCCCO[C@@H]2C1 [Example 1, 4-((4aS,10aR)-14-(4-chlorophenyl)-12,12-dimethyl-1,2,4a,5,8,9,10a,11,13,15-decahydro-7H,12H-benzo[f]pyrazino[2,1-c][1,8]dioxa[4]azacycloundecin-3(4H)-yl)-2-(3,4-dihydro-2H-pyrrolo[3′,2′:5,6]pyrido[2,3-b][1,4]oxazepin-1(7H)-yl)-N-((3-nitro-4-(((tetrahydro-2H-pyran-4-yl)methyl)amino)phenyl)sulfonyl)benzamide] was tested, and the Ki (Bcl-xL protein) was 19.4 nM, the EC50 (Molt-4 cells) was over 10000 nM and the EC50 (RS4;11 cells; 24 hours) was 4.01 nM. It also gave a Ki (Bcl-2 protein) of 0.459 nM.

In the case of CC1(C)CC(c2ccc(Cl)cc2)=C2CN3CCN(c4ccc(C(=O)NS(=O)(=O)c5ccc(NC[C@H]6CC[C@](C)(O)CO6)c([N+](=O)[O-])c5)c(N5CCCOc6nc7[nH]ccc7cc65)c4)C[C@H]3COCCCO[C@@H]2C1 [Example 2, 4-((4aS,10aR)-14-(4-chlorophenyl)-12,12-dimethyl-1,2,4a,5,8,9,10a,11,13,15-decahydro-7H,12H-benzo[f]pyrazino[2,1-c][1,8]dioxa[4]azacycloundecin-3(4H)-yl)-2-(3,4-dihydro-2H-pyrrolo[3′,2′:5,6]pyrido[2,3-b][1,4]oxazepin-1(7H)-yl)-N-((4-((((2R,5S)-5-hydroxy-5-methyltetrahydro-2H-pyran-2-yl)methyl)amino)-3-nitrophenyl)sulfonyl)benzamide], the Ki (Bcl-xL protein) is reported as 9.3 nM, the EC50 (Molt-4 cells) is reported as 1220 nM and the EC50 (RS4;11 cells; 24 hours) is reported as 0.651 nM. For the same compound, the Ki (Bcl-2 protein) was 0.0489 nM.

In the case of C[C@@H]1CO[C@@H](CNc2ccc(S(=O)(=O)NC(=O)c3ccc(N4CCN5CC6=C(c7ccc(Cl)cc7)CC(C)(C)C[C@H]6OCCCOC[C@@H]5C4)cc3N3CCCOc4nc5[nH]ccc5cc43)cc2[N+](=O)[O-])CO1 [Example 6, 4-((4aS,10aR)-14-(4-chlorophenyl)-12,12-dimethyl-1,2,4a,5,8,9,10a,11,13,15-decahydro-7H,12H-benzo[f]pyrazino[2,1-c][1,8]dioxa[4]azacycloundecin-3(4H)-yl)-2-(3,4-dihydro-2H-pyrrolo[3′,2′:5,6]pyrido[2,3-b][1,4]oxazepin-1(7H)-yl)-N-((4-((((2S,5R)-5-methyl-1,4-dioxan-2-yl)methyl)amino)-3-nitrophenyl)sulfonyl)benzamide], the Ki (Bcl-xL protein) is reported as 5.62 nM, the EC50 (Molt-4 cells) is reported as 1910 nM and the EC50 (RS4;11 cells; 24 hours) is reported as 1.55 nM. For the same compound, the Ki (Bcl-2 protein) was 0.438 nM.

Compound CC1(C)CC(c2ccc(Cl)cc2)=C2CN3CCN(c4ccc(C(=O)NS(=O)(=O)c5ccc(NC[C@H]6CC[C@H](O)CO6)c([N+](=O)[O-])c5)c(N5CCCOc6nc7[nH]ccc7cc65)c4)C[C@H]3COCCCO[C@@H]2C1 [Example 12, 4-((4aS,10aR)-14-(4-chlorophenyl)-12,12-dimethyl-1,2,4a,5,8,9,10a,11,13,15-decahydro-7H,12H-benzo[f]pyrazino[2,1-c][1,8]dioxa[4]azacycloundecin-3(4H)-yl)-2-(3,4-dihydro-2H-pyrrolo[3′,2′:5,6]pyrido[2,3-b][1,4]oxazepin-1(7H)-yl)-N-((4-((((2R,5S)-5-hydroxytetrahydro-2H-pyran-2-yl)methyl)amino)-3-nitrophenyl)sulfonyl)benzamide] has a Ki (Bcl-xL protein) of 6.13 nM, an EC50 (Molt-4 cells) of 823 nM and an EC50 (RS4;11 cells; Homo sapiens, RS4-11, 24 h) of 0.966 nM. The Ki (Bcl-2 protein) was 0.888 nM.

Work on CC1(C)CC(c2ccc(Cl)cc2)=C2CN3CCN(c4ccc(C(=O)NS(=O)(=O)c5ccc(NC[C@H]6CC[C@](O)(CF)CC6)c([N+](=O)[O-])c5)c(N5CCCOc6nc7[nH]ccc7cc65)c4)C[C@H]3COCCCO[C@@H]2C1 [Example 14, 4-((4aS,10aR)-14-(4-chlorophenyl)-12,12-dimethyl-1,2,4a,5,8,9,10a,11,13,15-decahydro-7H,12H-benzo[f]pyrazino[2,1-c][1,8]dioxa[4]azacycloundecin-3(4H)-yl)-2-(3,4-dihydro-2H-pyrrolo[3′,2′:5,6]pyrido[2,3-b][1,4]oxazepin-1(7H)-yl)-N-((4-((((1s,4s)-4-(fluoromethyl)-4-hydroxycyclohexyl)methyl)amino)-3-nitrophenyl)sulfonyl)benzamide] yielded a Ki (Bcl-xL protein) of 20.8 nM, an EC50 (Molt-4 cells) of 1740 nM and an EC50 (RS4;11 cells; 24 hours) of 1.64 nM. The Ki (Bcl-2 protein) was 0.24 nM.

Compound CC1(C)CC(c2ccc(Cl)cc2)=C2CN3CCN(c4ccc(C(=O)NS(=O)(=O)c5ccc(NC[C@H]6C[C@](O)(C7CCC7)C6)c([N+](=O)[O-])c5)c(N5CCCOc6nc7[nH]ccc7cc65)c4)C[C@H]3COCCCO[C@@H]2C1 [Example 15, 4-((4aS,10aR)-14-(4-chlorophenyl)-12,12-dimethyl-1,2,4a,5,8,9,10a,11,13,15-decahydro-7H,12H-benzo[f]pyrazino[2,1-c][1,8]dioxa[4]azacycloundecin-3(4H)-yl)-2-(3,4-dihydro-2H-pyrrolo[3′,2′:5,6]pyrido[2,3-b][1,4]oxazepin-1(7H)-yl)-N-((4-((((1s,3s)-1-hydroxy-[1,1′-bi(cyclobutan)]-3-yl)methyl)amino)-3-nitrophenyl)sulfonyl)benzamide] has a Ki (Bcl-xL protein) of 13.9 nM, an EC50 (Molt-4 cells) of 2550 nM and an EC50 (RS4;11 cells; 24 hours) of 5.64 nM. The Ki (Bcl-2 protein) was 0.552 nM.

CC1(C)CC(c2ccc(Cl)cc2)=C2CN3CCN(c4ccc(C(=O)NS(=O)(=O)c5ccc(NCC6(O)COC6)c([N+](=O)[O-])c5)c(N5CCCOc6nc7[nH]ccc7cc65)c4)C[C@H]3COCCCO[C@@H]2C1 [Example 17, 4-((4aS,10aR)-14-(4-chlorophenyl)-12,12-dimethyl-1,2,4a,5,8,9,10a,11,13,15-decahydro-7H,12H-benzo[f]pyrazino[2,1-c][1,8]dioxa[4]azacycloundecin-3(4H)-yl)-2-(3,4-dihydro-2H-pyrrolo[3′,2′:5,6]pyrido[2,3-b][1,4]oxazepin-1(7H)-yl)-N-((4-(((3-hydroxyoxetan-3-yl)methyl)amino)-3-nitrophenyl)sulfonyl)benzamide] showed a Ki (Bcl-xL protein) of 6.31 nM, an EC50 (Molt-4 cells) of 723 nM and an EC50 (RS4;11 cells; 24 hours) of 2.82 nM. For the same compound, the Ki (Bcl-2 protein) was 0.761 nM.

COC[C@]1(F)C[C@H](CNc2ccc(S(=O)(=O)NC(=O)c3ccc(N4CCN5CC6=C(c7ccc(Cl)cc7)CC(C)(C)C[C@H]6OCCCOC[C@@H]5C4)cc3N3CCCOc4nc5[nH]ccc5cc43)cc2[N+](=O)[O-])C1 [Example 47, 4-((4aS,10aR)-14-(4-chlorophenyl)-12,12-dimethyl-1,2,4a,5,8,9,10a,11,13,15-decahydro-7H,12H-benzo[f]pyrazino[2,1-c][1,8]dioxa[4]azacycloundecin-3(4H)-yl)-2-(3,4-dihydro-2H-pyrrolo[3′,2′:5,6]pyrido[2,3-b][1,4]oxazepin-1(7H)-yl)-N-((4-((((1r,3r)-3-fluoro-3-(methoxymethyl)cyclobutyl)methyl)amino)-3-nitrophenyl)sulfonyl)benzamide] showed an EC50 (Molt-4 cells) of over 10000 nM and an EC50 (RS4;11 cells; 24 hours) of 10.9 nM.

CO[C@]1(CF)C[C@@H](CNc2ccc(S(=O)(=O)NC(=O)c3ccc(N4CCN5CC6=C(c7ccc(Cl)cc7)CC(C)(C)C[C@H]6OCCCOC[C@@H]5C4)cc3N3CCCOc4nc5[nH]ccc5cc43)cc2[N+](=O)[O-])C1 [Example 48, 4-((4aS,10aR)-14-(4-chlorophenyl)-12,12-dimethyl-1,2,4a,5,8,9,10a,11,13,15-decahydro-7H,12H-benzo[f]pyrazino[2,1-c][1,8]dioxa[4]azacycloundecin-3(4H)-yl)-2-(3,4-dihydro-2H-pyrrolo[3′,2′:5,6]pyrido[2,3-b][1,4]oxazepin-1(7H)-yl)-N-((4-((((1r,3r)-3-(fluoromethyl)-3-methoxycyclobutyl)methyl)amino)-3-nitrophenyl)sulfonyl)benzamide] showed an EC50 (Molt-4 cells) of 5840 nM and an EC50 (RS4;11 cells; 24 hours) of 18.1 nM.

CC1(C)CC(c2ccc(Cl)cc2)=C2CN3CCN(c4ccc(C(=O)NS(=O)(=O)c5ccc(OC[C@H]6CC[C@@](C)(O)CC6)c([N+](=O)[O-])c5)c(N5CCCOc6nc7[nH]ccc7cc65)c4)C[C@H]3COCCCO[C@@H]2C1 [Example 49, 4-((4aS,10aR)-14-(4-chlorophenyl)-12,12-dimethyl-1,2,4a,5,8,9,10a,11,13,15-decahydro-7H,12H-benzo[f]pyrazino[2,1-c][1,8]dioxa[4]azacycloundecin-3(4H)-yl)-2-(3,4-dihydro-2H-pyrrolo[3′,2′:5,6]pyrido[2,3-b][1,4]oxazepin-1(7H)-yl)-N-((4-(((1s,4s)-4-hydroxy-4-methylcyclohexyl)methoxy)-3-nitrophenyl)sulfonyl)benzamide] was tested, and the EC50 (Molt-4 cells) was 36 nM and the EC50 (RS4;11 cells; 24 hours) was 25 nM.

CO[C@@H]1CC[C@@H](COc2ccc(S(=O)(=O)NC(=O)c3ccc(N4CCN5CC6=C(c7ccc(Cl)cc7)CC(C)(C)C[C@H]6OCCCOC[C@@H]5C4)cc3N3CCCOc4nc5[nH]ccc5cc43)cc2[N+](=O)[O-])OC1 [Example 51, 4-((4aS,10aR)-14-(4-chlorophenyl)-12,12-dimethyl-1,2,4a,5,8,9,10a,11,13,15-decahydro-7H,12H-benzo[f]pyrazino[2,1-c][1,8]dioxa[4]azacycloundecin-3(4H)-yl)-2-(3,4-dihydro-2H-pyrrolo[3′,2′:5,6]pyrido[2,3-b][1,4]oxazepin-1(7H)-yl)-N-((4-(((2S,5R)-5-methoxytetrahydro-2H-pyran-2-yl)methoxy)-3-nitrophenyl)sulfonyl)benzamide] was tested, and the EC50 (Molt-4 cells) was over 10000 nM and the EC50 (RS4;11 cells; 24 hours) was 9.6 nM.
